Results on 11 compounds are retold here after ChEMBL document CHEMBL1201862, “PubChem BioAssay data set” (2004).

Among the test systems are SNB-19; SW-620; HCT-15; EKVX; MDA-N; OVCAR-8; SK-MEL-2; NCI-H226; HCC 2998; OVCAR-4; M14; OVCAR-3; IGROV-1; A549; RPMI-8226; U-251; SNB-75; TK-10; SN12C.
What all share (test): growth of human tumour cells (NCI), 48 h

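Following 48 hours of exposure in 96-well plates, responses at five concentrations were used to interpolate endpoints linearly. GI50 marks 50% less growth.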 The source made the active and inactive calls. Rule as the data show it: active = GI50 up to about 1.1 µM and inactive = higher.

Turning to `Nc1nc(Cl)c(C=O)c(NCC2(CO)CCC2)n1`, the GI50 with SNB-19 was 17.1 µM (inactive); with SW-620, 28.2 µM (inactive); in the test on HCT-15, 11.8 µM; in the test on EKVX, 17.6 µM (inactive); in the test on MDA-N, 21.3 µM (inactive); in the test with OVCAR-8, 15 µM (inactive). The GI50 is 14.5 µM (inactive) in the test with SK-MEL-2; 15.4 µM (inactive) with NCI-H226; 9.48 µM (inactive) in the test on HCC 2998; 14.3 µM (inactive) in the test with OVCAR-4; 26.5 µM (inactive) with M14; 17.5 µM (inactive) with OVCAR-3. In addition, the GI50 is 12.3 µM (inactive) in the test with IGROV-1; 91.6 µM (inactive) with A549; 39.7 µM (inactive) in the test on RPMI-8226; 15.2 µM (inactive) in the test on U-251; 24 µM (inactive) with SNB-75; > 100 µM (inactive) with TK-10. For the same compound, in the test with SN12C, the GI50 was 45.2 µM (inactive).

Turning to `Cc1c2cccc-2c(OCCO)cc2c1[nH]c1ccccc12`, the GI50 with SNB-19 is 8.57 µM (inactive); in the test on SW-620 it was 3.52 µM (inactive); with HCT-15 it was 3.16 µM; in the test on EKVX it was 1.04 µM (active); in the test with MDA-N it was 2.76 µM (inactive); in the test on OVCAR-8, 3.6 µM (inactive). Moreover, the GI50 with SK-MEL-2 is 3.72 µM (inactive); in the test with NCI-H226, 2.96 µM (inactive); in the test with HCC 2998 it was 3.15 µM (inactive); in the test on OVCAR-4 it was 3.43 µM (inactive); in the test on M14, 1.97 µM (inactive); with OVCAR-3 it was 1.81 µM (inactive). The GI50 in the test on IGROV-1 is 1.88 µM (inactive); with A549, 3.15 µM (inactive); in the test with RPMI-8226, 3 µM (inactive); in the test on U-251, 1.89 µM (inactive); with SNB-75, 1.71 µM (inactive); in the test with TK-10 it was 4.06 µM (inactive). Besides, the GI50 in the test with SN12C was 2.09 µM (inactive).

For `Nn1c(Cc2ccccc2)n[nH]c1=O`, the GI50 in the test with SNB-19 is > 100 µM (inactive); with SW-620, > 100 µM (inactive); with HCT-15, greater than 100 µM; in the test with EKVX, > 100 µM (inactive); in the test with MDA-N it was > 100 µM (inactive); with OVCAR-8, > 100 µM (inactive). For the same compound, the GI50 with SK-MEL-2, with NCI-H226, in the test with HCC 2998, with OVCAR-4, with M14 and in the test with OVCAR-3 was > 100 µM (inactive) each time. In addition, the GI50 in the test with IGROV-1, with A549, in the test on RPMI-8226, with U-251, in the test on SNB-75 and in the test with TK-10 was > 100 µM (inactive) each time. The GI50 in the test on SN12C was > 100 µM (inactive).

In the case of `O=C(Nc1sccc1S(=O)(=O)c1ccc(Cl)cc1)c1ccc(Cl)cc1`, the GI50 in the test with SNB-19 is 44.2 µM (inactive); in the test with SW-620, > 100 µM (inactive); in the test with HCT-15, greater than 100 µM; in the test with EKVX it was 31 µM (inactive); in the test on MDA-N, > 100 µM (inactive); in the test with OVCAR-8, 63 µM (inactive). Also, the GI50 in the test with SK-MEL-2 was 59.8 µM (inactive); with NCI-H226 it was > 100 µM (inactive); with HCC 2998, > 100 µM (inactive); with OVCAR-4, 25.6 µM (inactive); with M14, > 100 µM (inactive); in the test with OVCAR-3, > 100 µM (inactive). Further, the GI50 in the test with IGROV-1 was > 100 µM (inactive); with A549, 94.8 µM (inactive); with RPMI-8226 it was > 100 µM (inactive); with U-251, 31 µM (inactive); in the test on SNB-75, 31.8 µM (inactive); in the test on TK-10 it was 50.8 µM (inactive). Moreover, the GI50 in the test on SN12C was > 100 µM (inactive).

Take `CC(=O)NC1(C)CCC(C(C)(C)NC(C)=O)CC1` (stereo not given): the GI50 was > 100 µM (inactive) with SNB-19; > 100 µM (inactive) with SW-620; greater than 100 µM with HCT-15; > 100 µM (inactive) with EKVX; > 100 µM (inactive) with MDA-N; > 100 µM (inactive) in the test on OVCAR-8. Besides, the GI50 in the test on NCI-H226, in the test with HCC 2998, in the test with OVCAR-4, in the test on M14, with OVCAR-3 and in the test with IGROV-1 was > 100 µM (inactive) each time. For the same compound, the GI50 in the test with A549, in the test on RPMI-8226, with U-251, in the test with SNB-75, in the test with TK-10 and in the test on SN12C was > 100 µM (inactive) in each case.

As to `C=C(C)C12CC(COC(=O)c3ccccc3)C34OC5(OC1C3C1OC1(CO)C(O)C1(O)C(OC(=O)c3ccccc3)C(C)C(C(C)CCCCCCC5O)C14)O2` (stereo not given), the GI50 is > 100 µM (inactive) with SNB-19; 54 µM in the test with HCT-15; 58.6 µM (inactive) in the test with EKVX; 25.9 µM (inactive) in the test with MDA-N; 60.4 µM (inactive) in the test on OVCAR-8; > 100 µM (inactive) in the test on SK-MEL-2. In addition, the GI50 with NCI-H226 is 40.7 µM (inactive); with HCC 2998 it was < 0.01 µM (active); in the test with OVCAR-4 it was > 100 µM (inactive); in the test on M14 it was 27.2 µM (inactive); in the test with OVCAR-3 it was 63 µM (inactive); with IGROV-1, > 72.8 µM (inactive). The GI50 in the test on RPMI-8226 was 18.8 µM (inactive); with U-251, 32.6 µM (inactive); in the test with SNB-75, > 82.8 µM (inactive); in the test with TK-10, < 0.01 µM (active); with SN12C, 37.8 µM (inactive).

Turning to `C[C@H](CCC(=O)O)[C@H]1CC[C@H]2[C@@H]3[C@H](O)C[C@@H]4C[C@H](O)CC[C@]4(C)[C@H]3CC[C@]12C` [CHENODIOL], the GI50 is 43.8 µM (inactive) with SNB-19; 41.7 µM (inactive) with SW-620; 32.1 µM with HCT-15; 33.8 µM (inactive) in the test with EKVX; 37.7 µM (inactive) in the test with MDA-N; 12.1 µM (inactive) in the test with OVCAR-8. The GI50 is 20 µM (inactive) in the test on SK-MEL-2; 22.2 µM (inactive) with NCI-H226; 28.9 µM (inactive) in the test on HCC 2998; 51.9 µM (inactive) with OVCAR-4; 27.7 µM (inactive) with M14; 27 µM (inactive) with IGROV-1. Further, the GI50 is 34.8 µM (inactive) in the test on A549; 22.6 µM (inactive) in the test on RPMI-8226; 37.6 µM (inactive) with U-251; 19.6 µM (inactive) in the test with SNB-75; 26.2 µM (inactive) in the test with TK-10; 43.2 µM (inactive) in the test on SN12C.

As for `CCN(CC)c1ccc(C2Nc3ccc4ccccc4c3C3=C2C(=O)CCC3)cc1` (stereo not given), the GI50 was 37.3 µM (inactive) with SNB-19; > 100 µM (inactive) in the test with SW-620; greater than 100 µM in the test on HCT-15; > 100 µM (inactive) in the test with EKVX; > 100 µM (inactive) with MDA-N; 14.7 µM (inactive) in the test on OVCAR-8. Moreover, the GI50 in the test with SK-MEL-2 is 35.5 µM (inactive); with NCI-H226, 35.8 µM (inactive); in the test on HCC 2998 it was > 100 µM (inactive); in the test on OVCAR-4, 14.9 µM (inactive); in the test with M14, > 100 µM (inactive); in the test on OVCAR-3 it was 16.4 µM (inactive). For the same compound, the GI50 in the test on A549 was 26.7 µM (inactive); in the test on RPMI-8226 it was > 100 µM (inactive); in the test on U-251, 14.9 µM (inactive); in the test with SNB-75, 17.3 µM (inactive); in the test with SN12C, 42 µM (inactive).

`CNC(=S)NN=C1NCCCCN1`: the GI50 was > 100 µM (inactive) in the test on SNB-19; > 100 µM (inactive) in the test with SW-620; greater than 100 µM in the test on HCT-15; > 100 µM (inactive) in the test on EKVX; > 100 µM (inactive) with MDA-N; > 100 µM (inactive) in the test with OVCAR-8. The GI50 with SK-MEL-2, in the test with NCI-H226, in the test with HCC 2998, in the test with OVCAR-4, in the test on M14 and with OVCAR-3 was > 100 µM (inactive) each time. The GI50 in the test on IGROV-1, in the test on A549, in the test on RPMI-8226, with U-251, with SNB-75 and with TK-10 was > 100 µM (inactive) in each case.

For `OC1CCN2Cc3ccccc3N=C12` (stereo not given), the GI50 was > 100 µM (inactive) in the test with SNB-19; > 100 µM (inactive) with SW-620; greater than 100 µM in the test with HCT-15; > 100 µM (inactive) in the test with EKVX; > 100 µM (inactive) with MDA-N; > 100 µM (inactive) with OVCAR-8. Moreover, the GI50 with SK-MEL-2, with NCI-H226, in the test on HCC 2998, with OVCAR-4, in the test on M14 and in the test with OVCAR-3 was > 100 µM (inactive) each time. For the same compound, the GI50 in the test with A549, with RPMI-8226, with U-251, in the test with SNB-75, in the test with TK-10 and in the test with SN12C was > 100 µM (inactive) in each case.

For `CC1=C2O[C@]3(O)C=C2C(=C(O)C1=O)[C@@H]1O[C@H](CC[C@H](C)/C=C(\C)C[C@@H](C)C[C@@H]3C)[C@H](C)[C@H](O)[C@H]1C` [KENDOMYCIN], the GI50 with SNB-19 was 0.977 µM (active); with SW-620 it was 0.582 µM (active); in the test on HCT-15 it was 0.124 µM; with EKVX it was 0.356 µM (active); in the test on MDA-N, 0.166 µM (active); in the test with SK-MEL-2 it was 0.247 µM (active). For the same compound, the GI50 in the test on NCI-H226 was 1.12 µM (active); in the test with HCC 2998 it was 0.167 µM (active); in the test with OVCAR-4, 0.194 µM (active); with M14 it was 0.161 µM (active); with OVCAR-3, 0.15 µM (active); in the test on IGROV-1, 0.163 µM (active). For the same compound, the GI50 with A549 is 0.982 µM (active); with RPMI-8226, 0.118 µM (active); in the test with U-251 it was 0.326 µM (active); in the test on SNB-75, 0.394 µM (active); with TK-10 it was 0.155 µM (active); in the test with SN12C, 0.811 µM (active).
